Tests used:
adenylyl cyclase = experiment: Adenylyl cyclase activity assay on striatal membrane fractions; type: biochemical, mouse; conditions: striatal membranes of R6/2 mice compared with wild type mice
Description: Briefly, striatal tissues were isolated from the mice and sonicated in a lysis buffer (0.4 mM EDTA, 1 mM EGTA, 25 mM Tris-HCl, 250 mM sucrose, 0.1 mM leupeptin, and 40 μM PMSF, pH 7.4) using a W-380 sonicator (Ultrasonics, Farmingdale, N.Y., USA) at a setting of 20% output power for a total of 45 seconds. The resultant homogenate was centrifuged at 50,000×g for 30 minutes and the P1 membrane fractions and the soluble fractions were collected. The adenylyl cyclase activity assay was performed at 37° C. for 10 minutes in a 400-μl reaction mixture containing 1 mM ATP, 100 mM NaCl, 50 mM Hepes, 0.2 mM EGTA, 100 μM rolipram, 6 mM MgCl2, 1 μM GTP, and 20 μg of membrane protein. The reactions were stopped by adding 0.6 ml of 10% TCA. The cAMP formed was isolated by Dowex chromatography (Sigma, St. Louis, Mo., USA) and was assayed to the method described in Chern et al. The enzymatic reaction was in a linear range for up to 30 minutes with up to 40 μg of membrane proteins.

AMPK = experiment: Western blot of AMPK protein and Thr172 phosphorylation in striatal cytosolic fraction of treated R6/2 mice; type: in vivo, mouse; conditions: striatum of R6/2 mice, 5 μg/g i.p. once a day up to 3.5 weeks
Description: Male R6/2 mice and wild type littermates were obtained from Jackson Laboratories (Bar Harbor, Me., USA) and were mated with female control mice (B6CBAFI/J). Each offspring was genotyped by PCR using genomic DNA extracted from the tail to ensure that the number of CAG repeats remained approximately 150. Primers used were [NT] ID NO:1) and [NT] ID NO:2). All animal experiments were performed under protocols approved by the Academia Sinica Institutional Animal Care and Utilization Conunittee, Taiwan. […] Then, the striatal cytosolic fraction was collected from each mouse and subjected to Western blot analysis using the standard techniques as described in Rutter et al., Biochem. J. 2003;375:1-16. More specifically, membrane fractions were combined with a 2× sample buffer containing 125 mM Tris-HCl (pH 6.8), 20% glycerol, 1% SDS, 15% 2-mercaptoethanol, 200 mM dithiothreitol, and 0.01% bromphenol blue; boiled for 5 minutes; centrifuged to remove the insoluble material; and then separated on 8% separating gels. […] The phosphorylation of AMPK at Thr172 was quantified by densitometry of the anti-AMPK-P immunoreactive bands using ImageQuant v.3.15 (Molecular Dynamics).

R6/2 mice [1] = experiment: Motor coordination by rotarod performance; type: in vivo, mouse; conditions: treatment from 7 weeks of age, vs vehicle
Text: The motor coordination of each mouse was also examined by rotarod performance using standard techniques. […] It is known that the motor coordination of an R6/2 mouse starts to deteriorate at the age of 4 weeks, which is 3 weeks prior to the time of the CGS 21680 treatment. It is expected that CGS 21680 administration prior to 4 week of age might improve the motor coordination of an R6/2 mouse.

R6/2 mice [2] = experiment: Striatal atrophy / lateral ventricle enlargement on coronal brain sections; type: in vivo, mouse; conditions: R6/2 mice at 12 weeks old; vehicle 1.63±0.14, p<0.001, n=5
Description: Striatal atrophy is one of the major characteristics of HD. In R6/2 mice, marked progressive atrophy of the striatum was found at the age of 3 to 13 weeks (Ferrante et al., J. Neurosci. 2000;20:4389–4397). Thus, the above-described CGS 21680-treated and vehicle-treated R6/2 mice were examined for striatal atrophy.
Each of the mice was anesthetized using sodium pentobarbital (100 μg/g), and intracardially perfused with 4% paraformaldehyde in 0.1 M phosphate buffer (PB, pH 7.4). The brain was carefully removed, post-fixed with 4% paraformaldehyde/0.1 M PB for 2–5 hours, and immersed in 30% glycerol in 0.1 M PB. Then, it was cut at 20 μm on a freezing microtome (CM3050, Leica Microsystems Nussloch, Nussloch, Germany). Serial-cut coronal tissue sections from the rostral segment of the neostriatum to the level of the anterior commissure (interaural 5.34 mm/bregma 1.54 mm to interaural 3.7 mm/bregma −0.1 mm) were used to define atrophy of the striatum and enlargement of the lateral ventricles. Total areas of the striatum or the lateral ventricles were measured using the software NIH Image 1.62. Nissl-stained sections were quantified by counting the corresponding types of cells in defined areas of photomicrographs taken using a phase contrast microscope.

[3] = test system: NGF, CNTF, GDNF, BDNF, bFGF; experiment: Quantitative real-time RT-PCR of striatal neurotrophic factors; type: in vivo, mouse; conditions: R6/2 mice, mRNA normalized to GAPDH, vs vehicle
Description: Total RNA was purified from each of the above-described administrated mice and their littermates, and was treated with RNase-free DNase I (RQI, Promega, Madison, Wis., USA) following the manufacturer's protocol to remove genomic DNA. cDNA synthesis and quantitative real-time RT-PCR were performed using the […] One-Step RT-PCR kit (Clontech, Palo Alto, Calif., USA) containing SYBR Green I (BioWhittaker Molecular Applications; BMA, Rockland, Me., USA). More specifically, the first-strand cDNA was synthesized at 50° C. for 60 minutes and denatured at 95° C. for 10 minutes. PCR reactions were then carried out in the same tubes using the following conditions for 40 cycles: 95° C. for 30 seconds, 60° C. for 30 seconds, and 68° C. for 60 seconds.
Independent RT-PCRs were performed using the same RNAs for each neurotrophic factor gene (target gene) and glyceraldehyde-3-phosphate dehydrogenase (GAPDH, reference gene). Real-time fluorescence monitoring and melting curve analysis were performed using Rotor-Gene 3000 (Corbett Research, Sydney, Australia). […] Data were analyzed by the Rotor-Gene 3000 operating software version 4.6.94 (Corbett Research) to determine the threshold cycle (CT) above the background for each reaction. The relative transcript amount of each target gene, calculated using standard curves of serial RNA dilutions, was normalized to that of GAPDH amplified from the same RNA.

R6/2 mice [4] = experiment: Blood glucose level in R6/2 mice; type: in vivo, mouse; conditions: chronic treatment, untreated R6/2 higher than wild type by approximately 1-fold
Description: Hyperglycemia has been found in HD patients and R6/2 mice. […] The above-described R6/2 mice and wild type littermates were decapitated and blood samples (1 to 1.5 ml) were collected from each mouse using standard techniques. Blood glucose levels were measured using ABBOTT Alcyon 300i (ABBOTT Labs, USA).

R6/2 mice [5] = experiment: Locomotor activity (beam breaks in activity monitor) of R6/2 mice; type: in vivo, mouse; conditions: week 2 after administration, 5 μg/g i.p. daily, vs vehicle, statistically significant (Student's t-test)
Description: Twenty-four hours after each administration, the locomotor activity of each mouse was measured for 10 minutes according to the method described in Lee et al., Chin. J. Physiol. 1992;35:317–336. Briefly, each mouse was placed in an activity monitor (Coulbourn Instruments, Allentown, Pa., USA) equipped with 16×16 horizontal sensors, which were used to monitor the mouse's floor position. The locomotor activity was measured by the total number of beam breaks in an X-Y plane recorded every 10 minutes.

## CCNC(=O)[C@H]1O[C@@H](n2cnc3c(N)nc(NCCc4ccc(CCC(=O)O)cc4)nc32)[C@H](O)[C@@H]1O [CGS21680]
Adenylyl cyclase
  adenylyl cyclase activities induced by the compound, R6/2 vs wild type mice: much higher level than those in the wild type mice
AMPK; vs vehicle
  reduction of AMPK phosphorylation level (Thr172): about 35%
AMPK; compared with vehicle R6/2 and wild type
  AMPK protein level: about the same AMPK protein level
R6/2 mice [1]
  motor coordination (rotarod performance): No difference was found
R6/2 mice [2]
  size of ventricular enlargement: 0.91±0.14 mm^2
[3]
  striatum expression level of trophic factors: did not change
R6/2 mice [4]
  blood glucose level: reduced the aberrantly elevated blood glucose level in R6/2 mice to a level comparable to that in the wild type mice
R6/2 mice [5]
  locomotor activity: did not exhibit such deterioration, but showed improvement in the locomotor activity
